{"source": "patent US20190167749A1", "about": "“THE OLEO GEL COMPOSITION AND DELIVERY SYSTEM WITH ACTIVE COMPOUNDS FROM CANNABIS SATIVA AND MENTHA ARVENSIS FOR REDUCTION OF INFLAMMATION AND PAIN IN DEEP TISSUES” (UAB SATIMED, priority 2016, published 2019)", "origin": "cited, not measured here", "system": "collagen-induced arthritis", "note": "Read-outs that look alike come from different tables or passages of the source.", "data": [{"smiles": "C=C(C)[C@@H]1CCC(C)=C[C@H]1c1c(O)cc(CCCCC)cc1O", "note": "[CBD, cannabidiol]", "values": [{"measurement": "progression of arthritis", "setting": "acute and chronic relapsing CIA, i.p. or oral administration", "value": "effectively blocked progression of arthritis"}, {"measurement": "dose with optimal effect (bell-shaped dose dependency)", "setting": "i.p.", "value": 5, "unit": "mg/kg per day"}, {"measurement": "dose with optimal effect (bell-shaped dose dependency)", "setting": "orally", "value": 25, "unit": "mg/kg per day"}]}]}
